These are literature values, as cited in patent US12179232B2 (priority 2020, dated 2024).

For the data set, the system named is coronaviruses. The note with it: 0.05-0.2% benzalkonium chloride or 0.02% chlorhexidine digluconate.

Turning to `N=C(NCCCCCCNC(=N)NC(=N)Nc1ccc(Cl)cc1)NC(=N)Nc1ccc(Cl)cc1.O=C(O)[C@H](O)[C@@H](O)[C@H](O)[C@H](O)CO.O=C(O)[C@H](O)[C@@H](O)[C@H](O)[C@H](O)CO` [chlorhexidine digluconate], the “effectiveness of surface inactivation compared with ethanol, hydrogen peroxide, sodium hypochlorite” value was “less effective”.

On to benzalkonium chloride, for which the “effectiveness of surface inactivation compared with ethanol, hydrogen peroxide, sodium hypochlorite” value is on record as “less effective”.
